According to patent US20080227798A1, “POLYMORPHS OF SUCCINATE SALT OF 2-[6-(3-AMINO-PIPERIDIN-1-YL)-3-METHYL-2,4-DIOXO-3,4-DIHYDRO-2H-PYRIMIDIN-1-YLMETHY]-4-FLUOR-BENZONITRILE AND METHODS OF USE THEREFOR” (priority 2006, published 2008):
Entries after “also recorded” stand apart in the source; their conditions may differ.

Experiments:
Type in all cases: physicochemical
[1] = Moisture sorption/desorption analysis; conditions: for form by XRPD of the material remaining after the moisture sorption/desorption analysis: post moisture sorption/desorption
Method: Moisture sorption/desorption data were collected on a VTI SGA-100 Vapor Sorption Analyzer. Sorption and desorption data were collected over a range of 5% to 95% relative humidity (RH) at 10% RH intervals under a nitrogen purge. Samples were not dried prior to analysis. Equilibrium criteria used for analysis were less than 0.0100% weight change in 5 minutes, with a maximum equilibration time of 3 hours if the weight criterion was not met. Data were not corrected for the initial moisture content of the samples. NaCl and PVP were used as calibration standards. Moisture sorption and desorption study was conducted on a sample of Form A+B. The sample was prepared by crashed cooling crystallization (Example 3, section A.6) of the polymorphic forms from a ethanol:water (95:5) solution of Compound I. The moisture sorption and desorption study was conducted according to the procedures outlined in Example 3, section B.10. The data collected is plotted in FIG. 13 and summarized in Table L. Moisture sorption and desorption study was conducted on a sample of Form E. The sample was prepared by solvent/antisolvent crystallization (Example 3, section A.7) by the addition of acetonitrile to Compound I in water. The moisture sorption and desorption study was conducted according to the procedures outlined in Example 3, section B.10. The data collected is plotted in FIG. 23 and summarized in Table M. Moisture sorption and desorption study was conducted on a sample of Amorphous Form. The sample was prepared by lyophilolization of a solution of Compound I in water (Example 3, section A.9). The moisture sorption and desorption study was conducted according to the procedures outlined in Example 3, section B.10.

[2] = Thermogravimetric analysis (TGA); conditions: from 25° C. to 95° C.
Method: Thermogravimetric (TG) analyses were performed using a TA Instruments 2950 thermogravimetric analyzer. Each sample was placed in an aluminum sample pan and inserted into the TG furnace. The furnace was first equilibrated at 25° C., then heated under nitrogen at a rate of 10° C./min, up to a final temperature of 350° C. Nickel and Alumel™ were used as the calibration standards.

[3] = Vapor stress of amorphous solid
Method: Amorphous Compound I was placed in acetone, ethanol, and water vapor chambers for up to eight days. The solids were collected and analyzed by XRPD for form identification.
Solids of Amorphous Form of Compound I were stressed in acetone and ethanol vapor stress chambers for 4 days. Other aliquots of the solids were stressed in a water vapor chamber for 4 days and 8 days. The remaining solids were analyzed by XRPD.

[4] = Approximate solubility of Compound I in different solvents; conditions: for solubility: thermodynamic from solid, ambient temperature, approximate
Method: Compound I prepared by the method described in Example 1 was used for the solubility study. Solvents and other reagents were of ACS or HPLC grade and were used as received.
A weighed sample (typically about 20-25 mg) of Compound I was treated at ambient temperature with aliquots (typically ≧50 μL) of the test solvent with sonication between additions. Solvents were either reagent or HPLC grade. Solubility was estimated from the total volume of solvent used to obtain a clear solution, as determined by visual inspection. Solubility is expressed as “less than” when dissolution was not observed. If dissolution occurred after the last aliquot was added then solubility is expressed as “greater than or equal to” (≧). The actual solubilities may be greater than determined, due to over addition of solvent (large aliquots) or slow dissolution rates. Approximate solubilities of Compound I are summarized in Table A. The solubility values have been rounded to the nearest whole number and are reported to the nearest mg/mL.

[5] = Relative humidity stressing experiments; conditions: conditions not given
Text: Samples of Compound I were placed uncovered in approximately 58%, 88%, and 97% relative humidity jars. The samples were stored in the jars for approximately 8 days. The solids were collected and analyzed by XRPD for form identification. […] An aliquot of a mixture of Form A+B was stressed at 88% relative humidity for 23 days. Amorphous Form was stressed at 58% and 88% relative humidity for 23 days.

With Cn1c(=O)cc(N2CCC[C@@H](N)C2)n(Cc2ccccc2C#N)c1=O.O=C(O)CCC(=O)O [Amorphous Form] the “weight lost on desorption” value ([1]; 95-5% RH) was “Approximately 4.7%”, the Weight % chg ([1]; Samp RH 4.97%, 25.05° C., elapsed 1278.0 min (desorption)) was −1.269% and the Weight % chg ([1]; Samp RH 5.09%, 25.06° C., elapsed 84.0 min) was −0.975%. The Weight % chg ([1]; Samp RH 14.98%, 25.06° C., elapsed 113.6 min (sorption)) was −0.589%, the Weight % chg ([1]; Samp RH 15.06%, 25.04° C., elapsed 1243.6 min (desorption)) was −1.148% and the Weight % chg ([1]; Samp RH 24.92%, 25.05° C., elapsed 158.4 min (sorption)) was −0.166%. For the same compound, the Weight % chg ([1]; Samp RH 25.13%, 25.05° C., elapsed 1210.7 min (desorption)) was −1.026%, the Weight % chg ([1]; Samp RH 34.90%, 25.04° C., elapsed 277.5 min (sorption)) was 0.841% and the Weight % chg ([1]; Samp RH 35.06%, 25.05° C., elapsed 1179.2 min (desorption)) was −0.912%. For the same compound, the Weight % chg ([1]; Samp RH 41.98%, 25.04° C., elapsed 0.1 min (start)) was 0.000%, the Weight % chg ([1]; Samp RH 45.05%, 25.03° C., elapsed 392.7 min (sorption)) was 2.393% and the Weight % chg ([1]; Samp RH 45.07%, 25.05° C., elapsed 1144.4 min (desorption)) was −0.776%. For the same compound, the Weight % chg ([1]; Samp RH 54.99%, 25.02° C., elapsed 470.8 min (sorption)) was 4.540%, the Weight % chg ([1]; Samp RH 55.11%, 25.04° C., elapsed 1092.3 min (desorption)) was −0.545% and the Weight % chg ([1]; Samp RH 64.90%, 25.02° C., elapsed 508.0 min (sorption)) was 6.988%. For the same compound, the Weight % chg ([1]; Samp RH 65.07%, 25.03° C., elapsed 1039.8 min (desorption)) was −0.280%, the Weight % chg ([1]; Samp RH 74.82%, 25.02° C., elapsed 654.6 min (sorption)) was 0.437% and the Weight % chg ([1]; Samp RH 74.92%, 25.02° C., elapsed 957.5 min (desorption)) was 0.176%. The Weight % chg ([1]; Samp RH 84.78%, 25.03° C., elapsed 703.8 min (sorption)) was 0.922%, the Weight % chg ([1]; Samp RH 85.31%, 25.02° C., elapsed 877.9 min (desorption)) was 1.010% and the Weight % chg ([1]; Samp RH 94.59%, 25.02° C., elapsed 806.9 min (sorption)) was 3.400%. The “Post MB XRPD (form after moisture sorption/desorption analysis)” value ([1]; after moisture sorption/desorption) was “Crystalline, Form A (FIG. 31)”, the “weight lost on sorption” value ([1]; at 75% relative humidity) was “Approximately 7%” and the “weight loss on equilibration at 5% relative humidity” value ([1]; equilibration at 5% RH) was 1.0%. The “weight lost on equilibration” value ([1]; equilibration at 5% RH) was 1.0% weight lost on equilibration at 5% RH,, the weight gain ([1]; from 5-95% RH) was 4.4% and the “weight gain on sorption” value ([1]; from 75% to 95% relative humidity) was 4.4%. The weight lost ([1]; from 95-5% RH) was 4.7%, the “form by XRPD of the material remaining after the moisture sorption/desorption analysis” value [1] was “Form A; also recorded: low crystallinity A” and the “weight gained on sorption” value ([1]; up to 65% relative humidity) was “Approximately 8%”. The TGA weight loss [2] was 1.8% and the TGA weight loss ([2]; lyophilized from Compound I in water) was 1.8% weight loss from 25 °C to 95 °C.
For Cn1c(=O)cc(N2CCC[C@@H](N)C2)n(Cc2ccccc2C#N)c1=O.O=C(O)CCC(=O)O [Amorphous Solid of Compound I], the “Color/morphology after vapor stress” value ([3]; Acetone vapor, 4 days) was “off white, irregular”, the “Color/morphology after vapor stress” value ([3]; EtOH vapor, 4 days) was “off white, irregular” and the “Color/morphology after vapor stress” value ([3]; Water vapor, 4 days) was “off white, irregular,”. The “Form after vapor stress (XRPD)” value ([3]; Water vapor, 4 days) was “A + D”, the “Color/morphology after vapor stress” value ([3]; Water vapor, 8 days) was “white, irregular,” and the “Form after vapor stress (XRPD)” value ([3]; Water vapor, 8 days) was “low”.
With Cn1c(=O)cc(N2CCC[C@@H](N)C2)n(Cc2cc(F)ccc2C#N)c1=O [Compound I, 2-[6-(3-amino-piperidin-1-yl)-3-methyl-2,4-dioxo-3,4-dihydro-2H-pyrimidin-1-ylmethyl]-4-fluoro-benzonitrile succinate] the solubility ([4]; 2-propanol:water (88:12), organic solvent or mixture, IPA:H2O (88:12)) was 11000 µg/mL, the solubility ([4]; acetonitrile:water (85:15), organic solvent or mixture, ACN:H2O (85:15)) was 101000 µg/mL and the solubility ([4]; diethyl ether, organic solvent or mixture, di-Ethyl ether) was < 1000 µg/mL. The solubility ([4]; ethanol:water (95:5), organic solvent or mixture, EtOH:H2O (95:5)) was 5000 µg/mL, the “Solubility (in words)” value ([4]; most solvents, except DMF, methanol, TFE, water and water:solvent mixtures) was “Poor solubility” and the solubility ([4]; organic solvent or mixture, 1,4-Dioxane) was < 1000 µg/mL. For the same compound, the solubility ([4]; organic solvent or mixture, 2-Propanol (IPA)) was < 1000 µg/mL, the solubility ([4]; organic solvent or mixture, Acetone) was 2000 µg/mL and the solubility ([4]; organic solvent or mixture, Acetonitrile (ACN)) was < 1000 µg/mL. For the same compound, the solubility ([4]; organic solvent or mixture, Dichloromethane (DCM)) was < 1000 µg/mL, the solubility ([4]; organic solvent or mixture, Dimethyl Formamide (DMF)) was 68000 µg/mL and the solubility ([4]; organic solvent or mixture, Ethanol (EtOH)) was 2000 µg/mL. The solubility ([4]; organic solvent or mixture, Ethyl Acetate (EtOAc)) was < 1000 µg/mL, the solubility ([4]; organic solvent or mixture, Hexanes) was < 1000 µg/mL and the solubility ([4]; organic solvent or mixture, Methanol (MeOH)) was 20000 µg/mL. For the same compound, the solubility ([4]; organic solvent or mixture, Tetrahydrofuran (THF)) was < 1000 µg/mL, the solubility ([4]; organic solvent or mixture, Toluene) was < 1000 µg/mL and the solubility ([4]; organic solvent or mixture, Trifluoroethanol (TFE)) was > 200000 µg/mL. For the same compound, the solubility ([4]; Water (H2O)) was 51000 µg/mL.
For Cn1c(=O)cc(N2CCC[C@@H](N)C2)n(Cc2cc(F)ccc2C#N)c1=O.O=C(O)CCC(=O)O [Form B], the “form change in additional relative humidity stressing studies” value [5] was “converted to Form A”.
In the case of Cn1c(=O)cc(N2CCC[C@@H](N)C2)n(Cc2cc(F)ccc2C#N)c1=O.O=C(O)CCC(=O)O [Form E], the Weight % chg ([1]; Samp RH 5.03%, 24.77° C., elapsed 730.6 min (desorption)) is reported as −1.322%, the Weight % chg ([1]; Samp RH 5.23%, 24.77° C., elapsed 138.3 min) is reported as −1.268% and the Weight % chg ([1]; Samp RH 14.89%, 24.78° C., elapsed 154.5 min (sorption)) is reported as −1.187%. The Weight % chg ([1]; Samp RH 14.94%, 24.79° C., elapsed 557.2 min (desorption)) was −0.102%, the Weight % chg ([1]; Samp RH 24.87%, 24.78° C., elapsed 170.5 min (sorption)) was −1.074% and the Weight % chg ([1]; Samp RH 25.02%, 24.79° C., elapsed 543.5 min (desorption)) was −0.013%. For the same compound, the Weight % chg ([1]; Samp RH 34.83%, 24.78° C., elapsed 184.5 min (sorption)) was −0.947%, the Weight % chg ([1]; Samp RH 35.13%, 24.79° C., elapsed 526.0 min (desorption)) was 0.112% and the Weight % chg ([1]; Samp RH 35.22%, 24.77° C., elapsed 0.1 min (start)) was 0.000%. The Weight % chg ([1]; Samp RH 44.87%, 24.78° C., elapsed 203.4 min (sorption)) was −0.755%, the Weight % chg ([1]; Samp RH 45.03%, 24.78° C., elapsed 512.2 min (desorption)) was 0.236% and the Weight % chg ([1]; Samp RH 55.04%, 24.79° C., elapsed 253.5 min (sorption)) was −0.223%. For the same compound, the Weight % chg ([1]; Samp RH 55.05%, 24.78° C., elapsed 499.6 min (desorption)) was 0.398%, the Weight % chg ([1]; Samp RH 65.05%, 24.78° C., elapsed 281.1 min (sorption)) was 0.325% and the Weight % chg ([1]; Samp RH 65.16%, 24.78° C., elapsed 487.4 min (desorption)) was 0.616%. For the same compound, the Weight % chg ([1]; Samp RH 74.87%, 24.78° C., elapsed 301.2 min (sorption)) was 0.608%, the Weight % chg ([1]; Samp RH 75.25%, 24.78° C., elapsed 471.9 min (desorption)) was 0.949% and the Weight % chg ([1]; Samp RH 84.67%, 24.79° C., elapsed 322.2 min (sorption)) was 1.410%. For the same compound, the Weight % chg ([1]; Samp RH 85.18%, 24.77° C., elapsed 452.4 min (desorption)) was 1.632%, the Weight % chg ([1]; Samp RH 94.73%, 24.78° C., elapsed 415.8 min (sorption)) was 4.216% and the “weight loss on equilibration at 5% relative humidity” value ([1]; equilibration at 5% RH) was 1.3%. The “form by XRPD of the material remaining after the moisture sorption/desorption analysis” value [1] was “a mixture of Form A and Form E; also recorded: A + small quantity of E”.
